Laboratory results: patent US6331555A, “Treatment of platelet derived growth factor related disorders such as cancers” (priority 1999, dated 2001)
Entries after “also recorded” stand apart in the source; their conditions may differ.

Experiments:
[1] = tested on: A431 epidermoid tumor; test: SC xenograft in mice; type: in vivo, human
Protocol: (§1) Cell lines were grown in appropriate medium (see Appendix 1). Cells were harvested at or near confluency with 0.05% Trypsin-EDTA and pelleted at 450×g for 10 min. Pellets were resuspended in sterile PBS or media (without FBS) to a particular concentration and the cells were implanted into the hindflank of mice. Tumor growth was measured over 3 to 6 weeks using venier calipers. Tumor volumes were calculated as a product of length×width×height unless otherwise indicated. P values were calculated using the Students' t-test.
(§2) C6 and SKOV-3(T) cells were grown in culture, as described in "cell growth" above, and implanted into the hind flank of a female Balb/c nu/nu mouse at 3×10^6 cells (for C6 experiments), or 1×10^7 cells (for SKOV-3 experiments) in […] of PBS on Day 0. U87MG, U118MG or U373MG human glioblastoma cells (obtained from the ATCC), or A4312 were also implanted into athymic mice. […] Tumors were measured using venier calipers and tumor volume was calculated as a product of tumor length, width, and height.

[2] = tested on: U118 glioblastoma; test: SC xenograft in mice; type: in vivo, human; details: 15 mg/kg
Protocol: as §1, §2

[3] = tested on: SKOV3T ovarian tumor; test: SC xenograft in mice; type: in vivo, human
Protocol: as §1, §2

[4] = tested on: U373MG glioblastoma; test: SC xenograft in mice; type: in vivo, human
Protocol: as §1, §2

[5] = tested on: U87MG glioblastoma; test: SC xenograft in mice; type: in vivo, human
Protocol: as §1, §2

[6] = tested on: PDGF-R; test: PDGF-R autophosphorylation, T98G glioblastoma cells; type: cell-based, human; details: 200, 500, 1000 mM; 20 ng/ml PDGF-BB
Protocol: (§3) Proteins were then separated by SDS-polyacrylamide gel electrophoresis (PAGE). Proteins containing phosphorylated tyrosine were identified by western blotting with an anti-phosphotyrosine antibody. The level of phosphorylated tyrosine was determined by quantitating the amount of bound anti-phosphotyrosine. Quantitation was carried out by peak area integration using a Molecular Dynamics Computing Densitometer (Model 300S), and Image Quant v3.0 software (Molecule Dynamics). Data were expressed as relative peak.intensity (phosphorylation of a receptor divided by the total amount of phosphorylated tyrosine).
(§4) T98G cells were plated in MCDB105 medium containing 2% FBS and incubated for 24 hours at 37° C. […] The cells were then treated with ligand for 10 minutes (20 ng/ml PDGF-BB or 50 ng/ml EGF). The cells were lysed and the level of phosphorylated receptor was quantitated as described in Example 1.

[7] = tested on: spleen cells; test: Normal immune function in rats bearing a primary tumor; type: in vivo, rat; set-up: key to 3H-thymidine uptake: 0: no change; +/-: decrease in some drug-treated animals to levels detected in normal (non-tumor-bearing, non-drug-treated) animals; details: 8.4 mg/kg/day
Excerpt: At the indicated times, animals were sacrificed, and the spleens were aseptically removed and placed into sterile medium. Spleens were processed into single cell suspensions by grinding between sterile frosted glass microscope slides. After a single wash to remove tissue debris, the spleen cells were resuspended in a hypotonic ammonium chloride buffer to lyse erythrocytes. Lymphocytes were washed and resuspended to the appropriate concentrations in complete medium, consisting of RPMI plus 10% heat-inactivated FBS, 2 mM glutamine, 50 μM β-mercaptoethanol, and penicillin-streptomycin. The responses of the lymphocytes were examined in the following assays according to accepted procedures (Current Protocols in Immunology. Coligan, J. E., Kruisbeek, A. M., Margulies, D. H., Shevach, E. M., Strober, W. (eds.) John Wiley and Sons, Inc., 1992).
The T-cell mitogen, ConA, and the T-cell independent B-cell mitogen, LPS, were added to 96-well round-bottom wells at the indicated concentrations. Lymphocytes from normal, vehicle-dosed, and drug-dosed animals were added at a final concentration of 2.5×10^5 /well. Cultures were usually set up in triplicate or quadruplicate. The plates were incubated at 37° C. in a humidified atmosphere containing 5% CO2 for the indicated times. Supernatants (approximately 100 μL) were carefully removed from the wells and stored at -80° C. for lymphokine and immunoglobulin analyses. To measure proliferation of the lymphocytes, 1 μCi of ^3 H-thymidine was added to each well, and the plates were incubated for 6 hr. The cultures were harvested onto glass fiber filters, and the incorporated radioactivity was quantitated by liquid scintillation counting (Betaplate, Wallac).
Lymphocytes from normal, vehicle-dosed, and drug-dosed animals were plated at 2.5×10^5 /well in round-bottom 96-well plates. Stimulator cells were then added at the same cell concentration. The stimulator cells consisted of syngeneic or allogeneic lymphocytes which had been treated with 50 μg/mL of mitomycin C for 30 min prior to the assay. The plates were incubated for 3 to 4 days, at which time supernatants were harvested and the cultures were pulsed as described for the mitogen assays.
Supernatants from mitogen and MLR cultures were assayed for IL-2 and IL-6 content by the ability to support the growth of factor-dependent cell lines. HT-2 cells (10^4 /well, IL-2-dependent) and 7TD1 cells (2×10^3 /well, IL-6-dependent) were plated in 96-well flat-bottom plates, in 50 μL/well. Supernatants were added in 50 μL/well, and the plates were incubated overnight (HT-2) or four days (7TD1). Cellular proliferation was determined in the MTT colorimetric assay (Appendix 3.1).
Wistar rats received SC implants of C6 cells on day 0. […] The control group was not treated after tumor implantation. On day 21, the animals were sacrificed and the spleens were removed for in vitro analyses. Splenocytes were stimulated with ConA, LPS, and alloantigen (DA rat spleen cells) as in the murine studies.

[8] = tested on: NIH3T3 cells overexpressing the human EGF receptor; test: EGF-stimulated mitosis, flow cytometry; type: cell-based, mouse; details: 100 mM A10
[9] = tested on: EGF receptor; test: EGF receptor autophosphorylation, T98G glioblastoma cells; type: cell-based, human; details: 200, 500; 50 ng/ml EGF
Protocol: as §3, §4

[10] = mice xenotransplanted with human ovarian cancer cells

## Cc1oncc1C(=O)Nc1ccc(C(F)(F)F)cc1 [Compound A10, 5-methylisoxazole-4 carboxylic acid-(4-trifluromethyl)-anilide]
[1]; 15 mg/kg/day, DMSO
  effect on A431 tumor growth: no more than 25%
[1]; 12 to 20 mg/kg/day
  growth of xenograft: did not significantly inhibit the growth of xenotransplanted cells expressing EGF receptor; also recorded: failed to significantly inhibit the growth
[1]; nu/nu, 15 mg/kg/day, day 15
  % Inhibition: 40%
[2]
  % Inhibition: 57%
[3]; 15 mg/kg/day (DMSO), after 20 days
  inhibition in tumor growth: greater than 90%
[3]; [10]
  cytotoxicity or mortality: without significant cytotoxicity or mortality
  ovarian tumor growth: nearly complete inhibition of ovarian tumor growth
[3]; nu/nu, 15 mg/kg/day, day 21
  % Inhibition: 94%
[3]; xenografted athymic mice
  In Vivo inhibition: 95%
[4]; 15 mg/kg
  % Inhibition: 54%
[4]; nu/nu, 15 mg/kg/day, day 37
  % Inhibition: 54%
[5]; 5 mg/kg
  % Inhibition: 52%
[5]; 10 mg/kg
  % Inhibition: 58%
[5]; 15 mg/kg
  % Inhibition: 66%
[5]; 20 mg/kg
  % Inhibition: 92%
[6]
  autophosphorylation of PDGF-R by PDGF: inhibited autophosphorylation of PDGF-R by PDGF
[7]
  syngeneic MLR proliferative response: reduced in one of four A10-treated tumor-bearing animals
[7]; Allo
  3H-thymidine uptake: 0
  IL-2 production: 0
  IL-6 production: 0
[7]; ConA
  3H-thymidine uptake: 0
  IL-2 production: 0
  IL-6 production: 0
[7]; LPS
  3H-thymidine uptake: 0
  IL-2 production: 0
  IL-6 production: 0
[7]; Syn
  3H-thymidine uptake: +/-
  IL-2 production: 0
  IL-6 production: 0
[7]; Tumor stimulus
  3H-thymidine uptake: 0
  IL-2 production: 0
  IL-6 production: 0
[8]
  EGF-stimulated mitosis: not able to inhibit EGF-stimulated mitosis
[9]
  EGF stimulated autophosphorylation of EGF-R: little if any effect on the ability of EGF to stimulate autophosphorylation of EGF-R
